Results: ChEMBL document CHEMBL5154645, “Potent Anti-SARS-CoV-2 Activity by the Natural Product Gallinamide A and Analogues via Inhibition of Cathepsin L” (J Med Chem, 2022)
Calls of active or inactive are those of the source. The calls are words filed in the database; no cut-off is given here.

Test system: SARS-CoV-2
Assay: Antiviral activity against SARS-CoV-2 infected in human A549 cells overexpressing ACE2 assessed as reduction in virus-induced cytopathic effect at 625 nM incubated for 1 hr followed by viral infection measured after 96 hrs by inverted microscopy
Assay type: functional, organism-based
Conditions: Severe acute respiratory syndrome coronavirus 2, time 97.0 hrs

`CC[C@H](C)[C@@H](C(=O)O[C@@H](CC(C)C)C(=O)N[C@@H](CC(C)C)C(=O)N[C@@H](C)/C=C/C(=O)N1C(=O)C=C(OC)[C@@H]1C)N(C)C` [GALLINAMIDE A] was tested, and the Activity was “Active”.
